Data set [1] is described as follows: resorption after peroral administration of rapid release carvedilol formulations. The class given is in vivo. The conditions noted are these: e.g. the commercial formulation. From the text:
In the case of the peroral administration of rapid release carvedilol formulations, e.g. the commercial formulation, resorption quotas of up to 80% are achieved, with a considerable part of the resorbed carvedilol being very rapidly metabolized.

Data set [2] is described as follows: investigations into the gastrointestinal resorption of carvedilol. Type of data set: in vivo. Particulars: compared with resorption in the stomach.
Data set [3] in a line: dissolution in molten polyethylene glycol 6,000. The class given is physicochemical. Particulars: polyethylene glycol 6,000 melted at about 70° C.; carvedilol form I, II or IV dissolved. The method, then: Thus, carvedilol form I, II or IV can be dissolved in polyethylene glycol 6,000 which is melted at about 70° C. […] Further, the compositions in accordance with the invention can contain highly dispersed silicon dioxide as an anti-caking agent.

The conditions of data set [4]: pH 1.
A short description of data set [5]: active substance resorption / bioavailability of compositions containing carvedilol form IV. The class given is in vivo. Particulars: compositions with selected adjuvants, compared with formulations which contain carvedilol forms I or II.

In the case of `COc1ccccc1OCCNCC(O)COc1cccc2[nH]c3ccccc3c12` (racemic) [carvedilol, (±)1-(4-carbazolyloxy)-3-[2-(2-methoxyphenoxy)ethylamino]-2-propanole], the resorption quota entry in data set [1] is recorded as “up to 80%”. In addition, the “resorption in the ileum and colon” value in data set [2] is on record as “only a fraction of the resorption in the stomach”. Further, in data set [3], the “concentration of carvedilol obtained in polyethylene glycol 6,000” value was “up to 500 mg/ml”. In data set [4], the “solubility in aqueous media” value was 1 mg and 100; the “solubility in the strongly acidic region” value is reported as “very low solubility”.

Consider `COc1ccccc1OCCNCC(O)COc1cccc2[nH]c3ccccc3c12` (racemic) [carvedilol form IV, (±)1-(4-carbazolyloxy)-3-[2-(2-methoxyphenoxy)ethylamino]-2-propanole], for which the bioavailability entry in data set [5] is “improved bioavailability”.

The values are drawn from patent US20060148878A1, “Pseudopolymorphic forms of carvedilol” (priority 2001, published 2006).
